PubChem BioAssay AID248 (DTP/NCI, 2004)
Where “and” joins values, the source holds several entries; their conditions need not be identical. Identical values can stand only once. Inconclusive results and toxic doses are left out. No stated cut-off is given here; in the data, active means T/C of 150% or more; inactive means T/C below 125%.

Tested on: L1210 leukemia ip in BDF1 mice, survival T/C
Assay: NCI In Vivo Anticancer Drug Screen. Data for tumor model L1210 Leukemia (intraperitoneal) in B6D2F1 (BDF1) mice
Conditions: endpoint: mean survival time, higher = longer survival
Summary of the method: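 Transplantable tumor model; survival measured in treated vs vehicle control mice. Value = treated/control.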

[1] = dose: 100.0 mg/kg/injection, schedule: Q04DX002 (ip), vehicle: Klucel (hydroxypropylcellulose) (HPC)
[2] = dose: 200.0 mg/kg/injection, schedule: Q04DX002 (ip), vehicle: Klucel (hydroxypropylcellulose) (HPC)
[3] = dose: 100.0 mg/kg/injection, schedule: Q04DX003 (ip), vehicle: Klucel (hydroxypropylcellulose) (HPC)
[4] = dose: 200.0 mg/kg/injection, schedule: Q04DX003 (ip), vehicle: Klucel (hydroxypropylcellulose) (HPC)
[5] = dose: 400.0 mg/kg/injection, schedule: Q04DX003 (ip), vehicle: Klucel (hydroxypropylcellulose) (HPC)
[6] = dose: 100.0 mg/kg/injection, schedule: Q01DX009 (ip), vehicle: saline with Tween-80
[7] = dose: 100.0 mg/kg/injection, schedule: Q04DX003 (ip), vehicle: saline with Tween-80
[8] = dose: 200.0 mg/kg/injection, schedule: Q01DX009 (ip), vehicle: saline with Tween-80
[9] = dose: 200.0 mg/kg/injection, schedule: Q04DX003 (ip), vehicle: saline with Tween-80
[10] = dose: 100.0 mg/kg/injection, schedule: Q01DX001 (ip), vehicle: saline
[11] = dose: 200.0 mg/kg/injection, schedule: Q01DX001 (ip), vehicle: saline
[12] = dose: 400.0 mg/kg/injection, schedule: Q01DX001 (ip), vehicle: saline
[13] = dose: 100.0 mg/kg/injection, schedule: Q01DX009 (ip), vehicle: Klucel (hydroxypropylcellulose) (HPC)
[14] = dose: 200.0 mg/kg/injection, schedule: Q01DX009 (ip), vehicle: Klucel (hydroxypropylcellulose) (HPC)
[15] = dose: 400.0 mg/kg/injection, schedule: Q01DX009 (ip), vehicle: Klucel (hydroxypropylcellulose) (HPC)
[16] = dose: 100.0 mg/kg/injection, schedule: Q01DX001 (ip), vehicle: Klucel (hydroxypropylcellulose) (HPC)
[17] = dose: 200.0 mg/kg/injection, schedule: Q01DX001 (ip), vehicle: Klucel (hydroxypropylcellulose) (HPC)
[18] = dose: 400.0 mg/kg/injection, schedule: Q01DX001 (ip), vehicle: Klucel (hydroxypropylcellulose) (HPC)

Measured: T/C

NNC(=O)CNc1ccc(F)cc1F
inactive: [1] 101 % of control | [2] 114 % of control

CCOC(=O)c1cc2cc([N+](=O)[O-])ccc2oc1=O
inactive: [3] 93 % of control | [4] 93 % of control | [5] 94 % of control

CC(=O)NCc1cc2c3c(c1)CCCN3CCC2
inactive: dose: 50.0 mg/kg/injection, schedule: Q01DX009 (ip), vehicle: saline with Tween-80 97 % of control | [6] 90 % of control | [7] 90 % of control | [8] 94 % of control | [9] 100 % of control

CC(O)C(=O)COP(=O)(O)O (configuration not stated)
inactive: [10] 96 % of control | [11] 102 % of control | [12] 96 % of control

CN1CC2C3C=CC(C3)C2C1 (configuration not stated)
inactive: dose: 75.0 mg/kg/injection, schedule: Q01DX001 (ip), vehicle: other 96 % of control | dose: 150.0 mg/kg/injection, schedule: Q01DX001 (ip), vehicle: other 88 % of control

COc1ccc(O)c(/C=N/NC(N)=S)c1
inactive: [13] 100 % of control | [3] 115 % of control | [14] 104 % of control | [4] 96 % of control | [15] 100 % of control | [5] 97 % of control

Nc1ncnc2nc(Cc3ccccc3)[nH]c12
inactive: dose: 100.0 mg/kg/injection, schedule: Q01DX001 (ip), vehicle: gum acacia 95 % of control | dose: 200.0 mg/kg/injection, schedule: Q01DX001 (ip), vehicle: gum acacia 109 % of control

O=C(CC(=O)c1ccco1)c1ccco1
inactive: [10] 100 % of control | [11] 102 % of control | [12] 96 % of control

O=C(COCC(=O)N/N=C/c1ccc(Cl)c(Cl)c1)N/N=C/c1ccc(Cl)c(Cl)c1
inactive: dose: 6.25 mg/kg/injection, schedule: Q01DX009 (ip), vehicle: saline with Tween-80 92 % of control | dose: 12.5 mg/kg/injection, schedule: Q01DX009 (ip), vehicle: saline with Tween-80 90 % of control | dose: 25.0 mg/kg/injection, schedule: Q01DX009 (ip), vehicle: saline with Tween-80 89 % of control | [9] 86 % of control

Cc1ccc(/C=C2\NC(=O)NC2=O)cc1
inactive: dose: 25.0 mg/kg/injection, schedule: Q01DX009 (ip), vehicle: water 94 % of control | dose: 50.0 mg/kg/injection, schedule: Q01DX009 (ip), vehicle: water 93 % of control | dose: 100.0 mg/kg/injection, schedule: Q01DX009 (ip), vehicle: water 100 % of control | dose: 200.0 mg/kg/injection, schedule: Q01DX009 (ip), vehicle: water 94 % of control | dose: 400.0 mg/kg/injection, schedule: Q01DX009 (ip), vehicle: water 101 % of control

CN=C(N)NCCCCCCCCNC(N)=NC
inactive: dose: 5.0 mg/kg/injection, schedule: Q01DX001 (ip), vehicle: saline 95 % of control | dose: 10.0 mg/kg/injection, schedule: Q01DX001 (ip), vehicle: saline 101 % of control | dose: 20.0 mg/kg/injection, schedule: Q01DX001 (ip), vehicle: saline 101 % of control

Fc1c(F)c(F)c(Oc2c(F)c(F)c3c(c2F)C2C=CC3O2)c(F)c1F (configuration not stated)
inactive: dose: 50.0 mg/kg/injection, schedule: Q04DX003 (ip), vehicle: Klucel (hydroxypropylcellulose) (HPC) 95 % of control | [3] 93 % of control | [4] 93 % of control

CCCCC(=O)N/N=C/c1ccccc1Cl
inactive: [10] 102 % of control | [11] 104 % of control

COc1ccc2c(c1)C1(C(=O)O)CC=CCC1(C(=O)O)C2 (configuration not stated)
inactive: dose: 75.0 mg/kg/injection, schedule: Q01DX001 (ip), vehicle: saline 98 % of control | dose: 150.0 mg/kg/injection, schedule: Q01DX001 (ip), vehicle: saline 98 % of control | dose: 300.0 mg/kg/injection, schedule: Q01DX001 (ip), vehicle: saline 96 % of control

C1CCC2(CC1)COC1(OC2)OCC2(CCCCC2)CO1
inactive: [1] 97 % of control | [2] 101 % of control | dose: 400.0 mg/kg/injection, schedule: Q04DX002 (ip), vehicle: Klucel (hydroxypropylcellulose) (HPC) 90 % of control

CC1=NNC(c2ccco2)C1 (configuration not stated)
inactive: [10] 91 % of control | [11] 94 % of control | [12] 100 % of control

Cn1nnnc1CCO
inactive: dose: 100.0 mg/kg/injection, schedule: Q01DX001 (ip), vehicle: acetone 94 % of control | dose: 200.0 mg/kg/injection, schedule: Q01DX001 (ip), vehicle: acetone 97 % of control | dose: 400.0 mg/kg/injection, schedule: Q01DX001 (ip), vehicle: acetone 97 % of control

O=C(NC(=O)C(Cl)Cl)Nc1ccc2c(c1)Cc1ccccc1-2
inactive: [16] 95 % of control | [13] 100 % of control | [3] 102 % of control | [17] 100 % of control | [14] 98 % of control | [4] 96 % of control | [18] 100 % of control | [15] 104 % of control | [5] 96 % of control

C1CCCCCC(NC2=NCCO2)CCCCC1
inactive: dose: 25.0 mg/kg/injection, schedule: Q04DX003 (ip), vehicle: saline with Tween-80 97 % of control | dose: 50.0 mg/kg/injection, schedule: Q04DX003 (ip), vehicle: saline with Tween-80 102 % of control | [7] 88 % of control

NC(CCl)=NCCN1CCNC1=O
inactive: dose: 100.0 mg/kg/injection, schedule: Q04DX002 (ip), vehicle: saline 107 % of control | dose: 200.0 mg/kg/injection, schedule: Q04DX002 (ip), vehicle: saline 104 % of control | dose: 400.0 mg/kg/injection, schedule: Q04DX002 (ip), vehicle: saline 96 % of control

C=CCOc1ccccc1C(C)=O
inactive: [7] 97 % of control | [9] 97 % of control | dose: 400.0 mg/kg/injection, schedule: Q04DX003 (ip), vehicle: saline with Tween-80 89 % of control

COc1ccc(C(=O)CCC(=O)O)cc1
inactive: [6] 102 % of control | [8] 93 % of control | dose: 400.0 mg/kg/injection, schedule: Q01DX009 (ip), vehicle: saline with Tween-80 91 % of control

O=C(Nc1ccc(F)cc1)Nc1nccs1
inactive: [16] 88 % of control | [13] 98 % of control and 102 % of control | [3] 102 % of control | [17] 96 % of control | [14] 101 % of control and 117 % of control | [4] 111 % of control | [18] 93 % of control | [15] 98 % of control | [5] 113 % of control

O=C(CCCCC(=O)Nc1cc(C2=NCCN2)cc(C2N=CCN2)c1)Nc1cc(C2=NCCN2)cc(C2=NCCN2)c1 (configuration not stated)
inactive: dose: 2.2 mg/kg/injection, schedule: Q01DX Z (ip), vehicle: methylcellulose (MC) 96 % of control | dose: 3.0 mg/kg/injection, schedule: Q01DX Z (ip), vehicle: methylcellulose (MC) 106 % of control | dose: 5.0 mg/kg/injection, schedule: Q01DX Z (ip), vehicle: carboxymethylcellulose (CMC) 120 % of control | dose: 5.0 mg/kg/injection, schedule: Q01DX Z (ip), vehicle: methylcellulose (MC) 101 % of control | dose: 9.0 mg/kg/injection, schedule: Q01DX Z (ip), vehicle: methylcellulose (MC) 87 % of control | dose: 10.0 mg/kg/injection, schedule: Q01DX Z (ip), vehicle: carboxymethylcellulose (CMC) 100 % of control | dose: 15.0 mg/kg/injection, schedule: Q01DX Z (ip), vehicle: carboxymethylcellulose (CMC) 94 % of control
